Marks after values point to notes of the source that are not given here. Values belong to the compound of their own block, whether it stands above or below them.
How the values were obtained:
human sirtuin-1 (Sirt1) = target: T1, human sirtuin-1 (Sirt1) (Homo sapiens, UniProt Q96EB6); experiment: SIRT1 Fluorimetric Drug Discovery Kit, Sirt1 activation; type: biochemical; conditions: for Fold increase in sirtl activity versus control: 10 μM, control = trans-resveratrol
T1 construct: purchased BioMol, Hamburg, Germany
T1 sequence (Q96EB6 1-747): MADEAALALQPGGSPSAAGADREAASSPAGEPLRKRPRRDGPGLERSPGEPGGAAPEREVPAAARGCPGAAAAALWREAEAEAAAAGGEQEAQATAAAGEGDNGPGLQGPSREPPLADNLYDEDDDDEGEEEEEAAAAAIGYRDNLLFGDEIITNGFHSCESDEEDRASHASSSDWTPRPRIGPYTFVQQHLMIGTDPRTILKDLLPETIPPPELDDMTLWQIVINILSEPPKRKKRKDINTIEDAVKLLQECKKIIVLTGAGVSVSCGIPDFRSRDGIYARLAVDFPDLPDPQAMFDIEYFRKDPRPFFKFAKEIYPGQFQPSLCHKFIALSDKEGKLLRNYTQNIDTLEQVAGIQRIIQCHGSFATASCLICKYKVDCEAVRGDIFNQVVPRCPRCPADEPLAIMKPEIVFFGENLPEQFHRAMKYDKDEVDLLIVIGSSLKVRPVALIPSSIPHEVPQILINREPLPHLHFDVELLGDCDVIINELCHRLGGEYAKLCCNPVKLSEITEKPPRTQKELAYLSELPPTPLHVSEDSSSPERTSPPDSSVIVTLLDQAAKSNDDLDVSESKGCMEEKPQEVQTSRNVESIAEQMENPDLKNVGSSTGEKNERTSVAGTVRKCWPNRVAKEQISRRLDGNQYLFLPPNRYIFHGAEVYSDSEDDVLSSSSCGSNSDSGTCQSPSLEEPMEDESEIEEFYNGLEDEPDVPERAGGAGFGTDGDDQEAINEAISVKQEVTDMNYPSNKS
Experimental: Compounds were tested for Sirt1 activation using the SIRT1 Fluorimetric Drug Discovery Kit (BioMol, Hamburg, Germany), Testing was carried out in dubplicate following the manufacturer's instructions. Assay medium: 50 mM Tris-HCl pH 8.0, 137 mM NaCl, 2.7 mM KCl, 1 mM MgCl2, 1 mg/ml bovine serum albumin (BSA). Stock solutions of the test compounds (10 mM in DMSO) were used, yielding a final concentration of 10 μM in the assay plate. Readout was obtained by measuring the fluorescence in a microtiter plate reader (excitation: 380 nm; detection: 440 nm).
For this purpose, the test item stock solutions were diluted to yield concentrations of 0.3, 1, 3, 10 and 30 μM, respectively, in the assay, which was performed as described above. The compound of structure (I-1) was selected for this experiment.
Quantification using the GraphPad Prism 5.0 software (GraphPad Software, Inc., LaJolla, Calif., USA) led to the following EC300 values (i.e. the concentration that gave 3-times the basal response of the enzyme=activation by a factor of three):
The selectivity of the agonistic effect of the compound of formula (I-1) on different sirtuin isoforms was investigated. For this purpose, in vitro testing was performed as described in Example 1 using the respective SIRT1 Fluorimetric Drug Discovery Kit, SIRT2 Fluorimetric Drug Discovery Kit, and SIRT3 Fluorimetric Drug Discovery Kit (each from BioMol, Hamburg, Germany). […] The dose-response effect is slightly lesser on Sirt3.

Sirt2 = target: T2, Sirt2 (Homo sapiens, UniProt Q8IXJ6); experiment: SIRT2 Fluorimetric Drug Discovery Kit, Sirt2 activation; type: biochemical; conditions: Example 2, Table 6
T2 construct: purchased BioMol, Hamburg, Germany
T2 sequence (Q8IXJ6 1-389): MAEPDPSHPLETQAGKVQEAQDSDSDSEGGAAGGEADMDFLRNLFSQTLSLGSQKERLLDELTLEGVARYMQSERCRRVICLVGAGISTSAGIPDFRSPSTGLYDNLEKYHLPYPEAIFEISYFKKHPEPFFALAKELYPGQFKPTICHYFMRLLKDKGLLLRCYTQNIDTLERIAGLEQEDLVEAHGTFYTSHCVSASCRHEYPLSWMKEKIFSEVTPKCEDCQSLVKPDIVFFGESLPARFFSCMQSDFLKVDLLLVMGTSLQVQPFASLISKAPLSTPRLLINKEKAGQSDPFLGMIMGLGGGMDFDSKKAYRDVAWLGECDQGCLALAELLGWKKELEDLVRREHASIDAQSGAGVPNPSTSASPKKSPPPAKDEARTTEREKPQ

[1] = test system: normal human epidermal keratinocytes (NHEK); experiment: MTT reduction cytotoxicity assay in NHEK; type: cell-based; conditions: for viability: NHEK
Experimental: Culture conditions: 37° C., 5% CO2. Culture medium: Keratinocyte-SFM (serum-free medium) containing human recombinant epidermal growth factor (EGF 1-53) 0.25 ng/mL and bovine pituitary extract 25 μg/mL (Gibco; Cat. No. 17005-075), supplemented with gentamycin 25 μg/mL. Assay medium: Keratinocyte-SFM (Gibco; Cat. No. 10744-019), supplemented with gentamycin 25 μg/mL.
NHEK were seeded in 24-well plates (30.000 cells/well) and cultured in culture medium for 24 h and then in assay medium for another 24 h. Medium was then removed and replaced by assay medium containing the respective test compound or reference in defined concentrations.
Cytotoxicity was determined using the 3-(4,5-dimethylthiazol-2-yl)-2,5-diphenyltetrazoliumbromid (MTT) reduction assay (sse T. Mosmann (1983) J. Immunol. Methods. 65, pp. 55-63).

[2] = test system: normal human dermal fibroblasts (NHDF); experiment: Resazurin based cytotoxicity assay in NHDF; type: cell-based; conditions: 24 h and 48 h; 0.03 μM to 200 μM
Experimental: The effect of compound (I-1) on mitochondria biosynthesis was investigated in normal human dermal fibroblasts (NHDF). NHDF were obtained from PromoCell (Lot No. 006151; donor; from eyelid skin) and cultivated in Fibroblast Growth Medium (PromoCell; Cat. No. C-023020) supplemented with Supplement Mix (PromoCell; Cat. No. C-039215) at 37° C./5% CO2. NHDF were seeded in flat-bottom 96-well plates (5000 cells/well) and incubated in said medium for 24 h or 48 h, respectively, with the compounds present in concentrations ranging from 0.03 μM to 200 μM. Mitochondria content was analyzed using the Mito-ID® Green Detection Kit for fluorescence microscopy (Enzo Life Sciences; Cat. No. ENZ-51055-K500). Fluorometric analysis was done using a Spectramax plate reader (Molecular Devices) and following the manufacturer's protocol. Cytotoxicity was determined in parallel by fluorometric readout using the Resazurin Based In Vitro Toxicology Assay Kit (Sigma Aldrich, Cat. No. TOX-8), and following the manufacturer's protocol.

[3] = test system: 5′-AMP-activated protein kinase (AMPK); experiment: Western blot analysis of AMPK phosphorylation in NHEK; type: cell-based, human; conditions: for AMPK phosphorylation [% Control] / Ratio P-AMPK/GAPDH / P-AMPK: 1000 μM; for P-AMPK: 48 h
Sirt3 = target: T3, Sirt3 (Homo sapiens, UniProt Q9NTG7); experiment: SIRT3 Fluorimetric Drug Discovery Kit, Sirt3 activation; type: biochemical; conditions: Example 2, Table 6
T3 construct: purchased BioMol, Hamburg, Germany
T3 sequence (Q9NTG7 1-399): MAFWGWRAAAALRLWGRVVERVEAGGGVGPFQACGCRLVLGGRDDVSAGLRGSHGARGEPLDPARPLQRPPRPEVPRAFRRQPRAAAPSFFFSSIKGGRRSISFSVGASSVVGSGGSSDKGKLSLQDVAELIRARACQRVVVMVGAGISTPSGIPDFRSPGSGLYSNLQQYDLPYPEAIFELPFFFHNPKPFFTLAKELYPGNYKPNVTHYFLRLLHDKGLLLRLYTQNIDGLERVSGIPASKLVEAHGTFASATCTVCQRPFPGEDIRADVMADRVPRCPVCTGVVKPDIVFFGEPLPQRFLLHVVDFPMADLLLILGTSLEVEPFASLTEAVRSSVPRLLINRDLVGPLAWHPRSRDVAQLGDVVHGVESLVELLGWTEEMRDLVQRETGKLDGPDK

[4] = Example 1, concentration that gave 3-times the basal response of the enzyme

SMILES: O=C(O)c1c(O)cccc1/C=C/c1ccc(OC2OC(CO)C(O)C(O)C2O)cc1 (centres unmarked) [(I-5)]
Fold increase in sirtl activity versus control (human sirtuin-1 (Sirt1)): 2.7

SMILES: Oc1ccc(/C=C/c2cc(O)cc(O)c2)cc1 [trans-resveratrol]
EC300 (human sirtuin-1 (Sirt1); [4]): > 30 µM
EC300 (human sirtuin-1 (Sirt1); Example 2, Table 6, Sirt1): >30 µM
EC300 (Sirt2): >30 µM
viability ([1]; 100 μM): 2%
viability ([1]; 300 μM): 43%

SMILES: COc1cc(/C=C/c2cccc(O)c2C(=O)O)cc(OC)c1O [(I-4)]
Fold increase in sirtl activity versus control (human sirtuin-1 (Sirt1)): 2.0

SMILES: NC(=O)c1ncn([C@@H]2O[C@H](CO)[C@@H](O)[C@H]2O)c1N [AICAR, 5-Amino-1-βD-ribofuranosyl-imidazole-4-carboxamide]
AMPK phosphorylation [% Control] ([3]; Experiment 1, Membrane 1): 482 % Control
Ratio P-AMPK/GAPDH ([3]; Experiment 1, Membrane 1): 2.05
P-AMPK ([3]; Experiment 1, Membrane 1): 1060 AU/mm^2
AMPK phosphorylation [% Control] ([3]; Experiment 2): 506 % Control
Ratio P-AMPK/GAPDH ([3]; Experiment 2): 0.572
P-AMPK ([3]; Experiment 2): 1377449 AU/mm^2

Further lines, with some results ahead:

Fold increase in sirtl activity versus control (human sirtuin-1 (Sirt1)): 23.9
EC300 (human sirtuin-1 (Sirt1); [4]): 2.0 µM
EC300 (human sirtuin-1 (Sirt1); Example 2, Table 6, Sirt1): 12.9 µM
EC300 (Sirt2): 4.9 µM
EC300 (Sirt3): >30* μM
SMILES: CCOC(=O)c1c(O)cccc1/C=C/c1ccc(OCC)cc1 [(I-1)]
cytotoxicity against NHEK [1]: no cytotoxicity
cytotoxicity / cell viability in NHDF [2]: no cytotoxicity or loss of cell viability
AMPK phosphorylation ([3]; NHEK, 30 μM): significantly enhanced

Fold increase in sirtl activity versus control (human sirtuin-1 (Sirt1)): 4.8
SMILES: O=C(O)c1c(O)cccc1/C=C/c1ccc(O)cc1 [(I-2)]

Fold increase in sirtl activity versus control (human sirtuin-1 (Sirt1)): 1.1
SMILES: COC(=O)c1c(/C=C/c2ccc(OC)cc2)cccc1OC [(I-3)]

Source: patent publication US20140336136A1, “Carboxylated Stilbenes For Activating AMPK And Sirtuins” (Rahn AG, priority 2013, published 2014)
